According to patent US7960368B2, “Bismethylene-17A carbolactones and related uses” (Everstra, Inc., priority 2008, dated 2011):
Where “and” joins values, the source holds several entries; their conditions need not be identical. Identical values can stand only once. Like-named read-outs stand apart in the source and are kept apart here.

Experiments:
[1] = biological target: T1, recombinant rat androgen receptor ligand binding domain (ARLBD) (Rattus norvegicus, UniProt P15207); assay: Androgen receptor binding assay; conditions: for IC50: superscript marks the assay run
T1 sequence (P15207 651-882 limits assumed): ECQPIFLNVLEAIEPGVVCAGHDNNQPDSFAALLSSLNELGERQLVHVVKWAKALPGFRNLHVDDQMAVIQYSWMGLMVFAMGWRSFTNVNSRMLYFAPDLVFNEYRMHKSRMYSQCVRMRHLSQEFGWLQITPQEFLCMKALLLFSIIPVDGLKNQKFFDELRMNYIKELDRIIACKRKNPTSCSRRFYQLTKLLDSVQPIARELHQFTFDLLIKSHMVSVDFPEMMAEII
Method: The relative affinity of test substances for the androgen receptor was taken as a measure of androgen antagonist activity and of the potential for anti-androgen side effects. […] Different concentrations (e.g., 10 nM, 15 nM or 30 nM) of purified recombinant ARLBD are immobilized to an OptiPlate 96-well microtiter plate (Packard) via incubation at 4° C. in 100 μl/well PBS containing ARLBD. […] “No compound” controls contain DMSO/binding buffer without compound. The plates are incubated overnight at 4° C., after which solutions in the plates are aspirated and washed six times with PBS, followed by the addition of MicroScint-20 scintillation cocktail (Packard). The plates are sealed using transparent sealing tape and counted for radioactivity by use of the scintillation counter. The data thus obtained is used to determine the IC50 values and the relative binding affinity (“RBA”) of the androgen receptor for the test compound.

[2] = biological target: T2, recombinant human progesterone receptor B (hPR-B) (Homo sapiens, UniProt P06401); assay: Progestin receptor binding assay, hPR-B; conditions: for IC50: competition with [3H]-progesterone; for hPR-B RBA: relative binding affinity, progesterone = 100
T2 sequence (P06401 1-933): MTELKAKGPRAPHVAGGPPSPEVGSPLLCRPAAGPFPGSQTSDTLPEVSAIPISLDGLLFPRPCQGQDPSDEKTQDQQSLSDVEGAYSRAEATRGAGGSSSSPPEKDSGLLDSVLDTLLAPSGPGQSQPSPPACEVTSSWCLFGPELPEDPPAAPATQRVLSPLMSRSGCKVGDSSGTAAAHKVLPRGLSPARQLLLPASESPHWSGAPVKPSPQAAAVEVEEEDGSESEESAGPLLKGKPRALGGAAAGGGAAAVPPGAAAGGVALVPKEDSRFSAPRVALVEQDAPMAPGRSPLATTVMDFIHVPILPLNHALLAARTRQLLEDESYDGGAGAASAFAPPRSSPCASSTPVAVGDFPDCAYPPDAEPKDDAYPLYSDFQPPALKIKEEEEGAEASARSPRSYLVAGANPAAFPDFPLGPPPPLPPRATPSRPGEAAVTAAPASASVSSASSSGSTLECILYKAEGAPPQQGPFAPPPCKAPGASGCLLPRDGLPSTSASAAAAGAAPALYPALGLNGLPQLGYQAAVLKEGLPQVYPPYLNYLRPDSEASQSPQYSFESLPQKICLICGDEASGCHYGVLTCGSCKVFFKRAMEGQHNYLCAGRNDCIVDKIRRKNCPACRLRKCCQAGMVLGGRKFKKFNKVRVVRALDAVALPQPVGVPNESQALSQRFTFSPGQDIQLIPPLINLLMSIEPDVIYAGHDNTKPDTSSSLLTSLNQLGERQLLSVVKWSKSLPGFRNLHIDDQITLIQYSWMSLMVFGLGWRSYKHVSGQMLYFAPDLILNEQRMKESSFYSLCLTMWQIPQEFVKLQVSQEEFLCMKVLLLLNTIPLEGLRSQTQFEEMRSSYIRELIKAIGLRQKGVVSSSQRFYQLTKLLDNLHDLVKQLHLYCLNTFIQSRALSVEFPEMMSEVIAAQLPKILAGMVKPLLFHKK
Method: (§1) “No compound” controls contain DMSO/binding buffer without compound. The plates are incubated overnight at 4° C., after which solutions in the plates are aspirated and washed six times with PBS, followed by the addition of MicroScint-20 scintillation cocktail (Packard). The plates are sealed using transparent sealing tape and counted for radioactivity by use of the scintillation counter.

[3] = biological target: T3, recombinant human glucocorticoid receptor (rhGR) (Homo sapiens, UniProt P04150); assay: Glucocorticoid receptor binding assay; conditions: hGR IC50, competition with 10 nM [3H]dexamethasone; superscript marks the assay run
T3 sequence (P04150 1-777): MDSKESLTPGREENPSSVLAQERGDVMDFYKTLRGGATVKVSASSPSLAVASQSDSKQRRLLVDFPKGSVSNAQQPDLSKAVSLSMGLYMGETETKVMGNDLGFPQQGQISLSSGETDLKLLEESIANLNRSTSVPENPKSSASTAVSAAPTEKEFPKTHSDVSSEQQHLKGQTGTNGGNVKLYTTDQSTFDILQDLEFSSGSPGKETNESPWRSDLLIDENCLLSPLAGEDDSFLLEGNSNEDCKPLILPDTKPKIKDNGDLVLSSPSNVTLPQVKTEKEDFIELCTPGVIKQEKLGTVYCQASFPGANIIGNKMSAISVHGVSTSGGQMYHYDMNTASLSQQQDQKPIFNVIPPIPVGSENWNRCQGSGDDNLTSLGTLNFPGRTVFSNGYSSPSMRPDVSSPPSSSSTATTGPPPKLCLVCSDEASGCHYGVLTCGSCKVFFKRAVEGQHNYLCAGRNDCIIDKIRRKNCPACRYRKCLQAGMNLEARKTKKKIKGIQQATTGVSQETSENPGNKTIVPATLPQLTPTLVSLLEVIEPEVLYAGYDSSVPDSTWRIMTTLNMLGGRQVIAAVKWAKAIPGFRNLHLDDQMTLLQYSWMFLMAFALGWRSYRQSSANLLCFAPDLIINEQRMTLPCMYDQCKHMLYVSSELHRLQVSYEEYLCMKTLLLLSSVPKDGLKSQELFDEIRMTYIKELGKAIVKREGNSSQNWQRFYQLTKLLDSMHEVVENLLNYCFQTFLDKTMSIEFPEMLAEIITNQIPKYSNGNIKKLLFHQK
Method: DCC is added to the wells after incubation to separate bound and unbound radioligand using a repeater pipettor to reduce variability.
Recombinant human GR: 8.6 pmol/mg, 80 pmol/ml. • 2. KEM buffer (10 mM KPO4, pH 7.4, 0.1 mM EDTA, 20 mM Na2MoO4) • 3. KEMD buffer (KEM buffer+5 mM DTT, add DTT the day of assay) • 4. […] 5% Dextran-coated charcoal solution in DEM buffer B. Assay Method—Set Up on Ice. • 1. Dilute 4×10^−3 M CDB-3972 to 4×10^−5 M (40 μM) in KEMD for NSB. The final concentration will be 10 μM. • 2. Thaw the rhGR on ice. […] Dilute rhGR 1:5 (80 pmol/ml) to 16.0 pmol/ml in KEMD. At 25 μl/tube, the final concentration will be 400 fmol/tube in KEMD. • 3. Prepare KEMD containing 10% ethanol. Dilute the compounds to be assayed in KEMD containing 10% ethanol to the working concentrations specified in Table 3. • 4. Prepare a 40 nM solution [^3H]Dex in KEMD containing 10% ethanol. The final concentration will be 10 nM. • 5. Set up the assay in microplates. Use 3 wells for total counts (no receptor), 3 NSB, 6 total binding, and triplicate wells for each concentration of dex or CDB compound. […] Mix gently, and incubate overnight at 2-6° C.
The next morning, prechill the Jouan centrifuge with microplate rotor. Add 50 μl of 5% DCC in KEM to all but total counts using a repeater pipettor. Make sure the DCC is constantly mixed and thoroughly resuspended before adding to the wells. • 7. Mix gently in the cold room for 5 min on plate shaker. • 8. Centrifuge at 3,000 rpm in the Jouan centrifuge at 4° C. for 15 min. • 9. Keeping the plates on ice, pipet 100 μl of the supernatants into 24-well plates, add 1 ml of Microscint PS, and seal the plates. Pre-incubate the plates for 10 min in the counter, and count each well for 2 min in the TopCount.

[4] = biological target: T4, recombinant human progesterone receptor A (hPR-A) (Homo sapiens, UniProt P06401); assay: Progestin receptor binding assay, hPR-A; conditions: for IC50: competition with [3H]-progesterone; for hPR-A RBA: relative binding affinity, progesterone = 100
T4 sequence (P06401 1-769 isoform P06401-2): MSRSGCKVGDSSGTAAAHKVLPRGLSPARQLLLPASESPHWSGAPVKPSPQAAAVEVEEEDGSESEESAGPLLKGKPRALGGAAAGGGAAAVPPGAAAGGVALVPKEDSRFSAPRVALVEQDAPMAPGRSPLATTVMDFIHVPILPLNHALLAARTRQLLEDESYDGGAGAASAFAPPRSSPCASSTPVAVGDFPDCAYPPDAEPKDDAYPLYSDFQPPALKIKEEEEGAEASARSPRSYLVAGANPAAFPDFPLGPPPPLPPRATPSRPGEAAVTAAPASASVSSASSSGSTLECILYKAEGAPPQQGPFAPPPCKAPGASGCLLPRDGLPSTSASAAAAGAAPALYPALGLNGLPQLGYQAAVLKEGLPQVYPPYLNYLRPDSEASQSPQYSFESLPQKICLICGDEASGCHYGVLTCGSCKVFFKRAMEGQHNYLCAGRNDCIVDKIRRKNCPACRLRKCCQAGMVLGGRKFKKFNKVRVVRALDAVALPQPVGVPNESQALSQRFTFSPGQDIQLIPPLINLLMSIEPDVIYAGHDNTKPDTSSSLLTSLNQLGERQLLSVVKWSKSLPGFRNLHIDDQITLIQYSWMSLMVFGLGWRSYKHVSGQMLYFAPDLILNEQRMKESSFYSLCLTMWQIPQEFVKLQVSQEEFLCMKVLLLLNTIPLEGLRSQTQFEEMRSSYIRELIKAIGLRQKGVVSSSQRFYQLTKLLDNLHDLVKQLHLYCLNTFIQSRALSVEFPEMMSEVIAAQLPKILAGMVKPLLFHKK
Method: as §1

[5] = acidic conditions such as the gastric environment; cited from earlier work
[6] = single entity tablet; cited from earlier work
[7] = various pH values; cited from earlier work
[8] = competition with 5 nM [3H]-R1881, read-out: ARLBD IC50
[9] = ARLBD IC50, competition with 5 nM [3H]-R1881

| SMILES | ARLBD RBA [1] | IC50 [1, 8] | IC50 [2] [nM] | hPR-B RBA [2] [%] | IC50 [3] | IC50 [4] [nM] | hPR-A RBA [4] [%] | isomerization under acidic conditions [5] | absolute bioavailability [6] | solubility in water [7] | IC50 [1, 9] | ARLBD RBA ([1]; relative binding affinity, R1881 = 100, same assay run) [%] |
| --- | --- | --- | --- | --- | --- | --- | --- | --- | --- | --- | --- | --- |
| C[C@]12C=CC(=O)C=C1C1(CC1)CC1C2CC[C@@]2(C)C1[C@@H]1CC1[C@@]21CCC(=O)O1 (stereo partly drawn) [Compound (IVb), 6,6-ethylene-15β,16β-methylene-3-oxo-17α-pregna-1,4-diene 21,17-carbolactone] | 5% and 4% | 101 nM and 108 nM | 15.4 | 38 | 87.9 nM and 121 nM | 13.8 | 38 |  |  |  |  |  |
| C[C@]12CCC(=O)C=C1[C@@H]1C[C@@H]1[C@H]1[C@@H]3[C@@H]4C[C@@H]4[C@@]4(CCC(=O)O4)[C@@]3(C)CC[C@@H]12 [Drospirenone, 6β,7β,15β,16β-dimethylene-3-oxo-17α-pregn-4-ene-21,17-carbolactone] |  |  |  | 29 |  |  | 23 | undergo isomerization to a form that is inactive | about 76% | sparingly soluble |  |  |
| C[C@@]12C(=CC(=O)C3C[C@@H]31)C1(CC1)CC1C2CC[C@@]2(C)C1[C@@H]1CC1[C@@]21CCC(=O)O1 (stereo partly drawn) [Compound (IVc), 1α,2α:15β,16β-Dimethylene-6,6-ethylene-3-oxo-17α-pregn-4-ene-21,17-carbolactone] | 7% and 5% |  | 8.3 | 71 | 117 nM and 300 nM | 6.7 | 78 |  |  |  | 83.6 nM and 80.9 nM |  |
| C[C@]12CC3(CC3)C(=O)C=C1[C@@H]1CC1C1C2CC[C@@]2(C)C1[C@@H]1CC1[C@@]21CCC(=O)O1 (stereo partly drawn) [Compound (IIIe), 2,2-Ethylene-6β,7β:15β,16β-dimethylene-3-oxo-17α-pregn-4-ene-21,17-carbolactone] | <0.6% and <0.5% | > 1000 nM | > 1000 | <0.6 | > 1000 nM | > 1000 | <0.6 |  |  |  |  |  |
| C[C@]12CCC(=O)C=C1C1(CC1)CC1C2CC[C@@]2(C)C1[C@@H]1CC1[C@@]21CCC(=O)O1 (stereo partly shown) [Compound (IVa)] | 20% and 25% |  | 5.1 | 116 | 45.1 nM and 64 nM | 3.5 | 149 |  |  |  | 28 nM and 17.7 nM |  |
| C[C@]1(O)CC[C@H]2[C@@H]3CCC4=CC(=O)CCC4=C3C=C[C@@]21C [Compound R1881, methyltrienolone, reference compound] |  |  |  |  |  |  |  |  |  |  |  | 100 |
